Patent EP4722219A1 (Gan & Lee Pharmaceuticals Co., Ltd., priority 2023, dated 2024)

Legend:
Format in all cases: cell-based
AR protein = molecular target: T1, AR protein (Homo sapiens, UniProt P10275, T878A); assay: AR protein degradation in LNCaP cells (Western blot); conditions: 8 hours
T1 construct: host or cells: LNCaP FGC
T1 sequence (P10275 1-920 T878A): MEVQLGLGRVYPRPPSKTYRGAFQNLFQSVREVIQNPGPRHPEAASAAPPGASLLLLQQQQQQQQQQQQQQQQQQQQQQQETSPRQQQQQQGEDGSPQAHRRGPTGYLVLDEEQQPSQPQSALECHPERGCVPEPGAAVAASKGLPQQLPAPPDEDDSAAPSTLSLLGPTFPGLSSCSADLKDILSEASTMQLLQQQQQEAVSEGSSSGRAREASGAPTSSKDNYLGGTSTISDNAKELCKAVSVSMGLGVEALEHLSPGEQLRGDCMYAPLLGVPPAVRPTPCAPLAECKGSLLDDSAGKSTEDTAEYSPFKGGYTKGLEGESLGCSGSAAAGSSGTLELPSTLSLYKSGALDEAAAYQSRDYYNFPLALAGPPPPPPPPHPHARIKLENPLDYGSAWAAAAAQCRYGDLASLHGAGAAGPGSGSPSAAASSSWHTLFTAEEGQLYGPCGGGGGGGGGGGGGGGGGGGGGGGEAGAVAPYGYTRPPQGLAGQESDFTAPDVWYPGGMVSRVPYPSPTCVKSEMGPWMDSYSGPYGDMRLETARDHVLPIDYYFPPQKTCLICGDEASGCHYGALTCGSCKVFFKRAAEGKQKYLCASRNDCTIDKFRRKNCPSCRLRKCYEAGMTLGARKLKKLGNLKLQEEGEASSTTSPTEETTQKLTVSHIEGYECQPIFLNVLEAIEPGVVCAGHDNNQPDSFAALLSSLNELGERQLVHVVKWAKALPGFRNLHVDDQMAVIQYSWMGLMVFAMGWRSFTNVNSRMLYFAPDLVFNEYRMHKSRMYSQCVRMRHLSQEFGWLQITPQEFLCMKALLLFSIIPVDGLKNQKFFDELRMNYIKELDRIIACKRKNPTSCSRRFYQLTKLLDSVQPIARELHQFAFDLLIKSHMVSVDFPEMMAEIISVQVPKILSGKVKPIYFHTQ
Method in brief: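 LNCaP cells exposed to compound or solvent control for 8 h, lysed in RIPA, protein normalized by BCA. AR detected by SDS-PAGE/Western blot with infrared imaging; band grayscale normalized to GAPDH to calculate AR degradation rate.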

LNCaP cells = assay: Inhibition of LNCaP cell proliferation (WST-8); conditions: LNCaP FGC cells, 96 hours
Method in brief: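 Cells were seeded and cultured overnight at 37 °C, 5% CO2, then exposed for 96 h to compound at 9 concentrations, 5-fold serial dilution from 10 µM final. Viability was read by WST-8 absorbance at 450 nm.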

VCaP cells = assay: Inhibition of VCaP cell proliferation (WST-8); conditions: 168 hours
Method in brief: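 VCaP cells seeded at 15,000/well in DMEM + 10% FBS, treated next day with nine 5-fold dilutions from 10 µM (final) at 37°C, 5% CO2. Viability read by WST-8 absorbance at 450 nm on day 9.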

| Compound | Degradation of AR protein in LNCaP cells, 10 nM (%) (AR protein) | Degradation of AR protein in LNCaP cells, 100 nM (%) (AR protein) | IC50 (LNCaP cells; Homo sapiens) [µM] | IC50 (VCaP cells; Homo sapiens) [µM] | IC50 (LNCaP cells) [µM] | IC50 (VCaP cells) [µM] |
| --- | --- | --- | --- | --- | --- | --- |
| C[C@H]1CC2(CCN(c3ccc(C(=O)N4CCC(CN5CCN6c7ccc(C(=O)N[C@H]8CCC(=O)NC8=O)cc7OC[C@@H]6C5)CC4)cc3)CC2)CN1c1ccc(C#N)c(Cl)c1 [A-P-69] | 52 | 79 | 0.28 | 1.32 | – | – |
| COc1cc(O[C@H]2C(C)(C)[C@H](NC(=O)c3ccc(N4CCC(CN5CCC6(CC5)COc5c6ccc(C(=O)N[C@H]6CCC(=O)NC6=O)c5F)CC4)cc3)C2(C)C)ccc1C#N [A-P-83] | 41 | 65 | 0.71 | 2.58 | – | – |
| COc1cc(O[C@H]2C(C)(C)[C@H](NC(=O)c3ccc(N4CCC(F)(CN5CCC6(CC5)COc5c6ccc(C(=O)N[C@H]6CCC(=O)NC6=O)c5F)CC4)cc3)C2(C)C)ccc1C#N [A-P-84] | -6 | 33 | 0.11 | 0.49 | – | – |
| COc1cc(O[C@H]2C(C)(C)[C@H](NC(=O)c3ccc(N4CCC(C)(CN5CCC6(CC5)COc5c6ccc(C(=O)N[C@H]6CCC(=O)NC6=O)c5F)CC4)cc3)C2(C)C)ccc1C#N [A-P-85, 1'-((1-(4-(((1r,3r)-3-(4-cyano-3-methoxyphenoxy)-2,2,4,4-tetramethylcyclobutyl)carbamoyl)phenyl)-4-methylpiperidin-4-yl)methyl)-N-((S)-2,6-dioxopiperidin-3-yl)-7-fluoro-2H-spiro[benzofuran-3,4'-piperidin]-6-carboxamide] | 7 | 40 | 0.29 | 0.54 | – | – |
| COc1cc(O[C@H]2C(C)(C)[C@H](NC(=O)c3ccc(N4CCC(CN5CCC6(CC5)COc5c6ccc(C(=O)N[C@H]6CCC(=O)NC6=O)c5F)(OC)CC4)cc3)C2(C)C)ccc1C#N [A-P-86, 1'-((1-(4-(((1r,3r)-3-(4-cyano-3-methoxyphenoxy)-2,2,4,4-tetramethylcyclobutyl)carbamoyl)phenyl)-4-methoxypiperidin-4-yl)methyl)-N-((S)-2,6-dioxopiperidin-3-yl)-7-fluoro-2H-spiro[benzofuran-3,4'-piperidin]-6-carboxamide] | 37 | 39 | 0.39 | 1.79 | – | – |
| COc1cc(O[C@H]2C(C)(C)[C@H](NC(=O)c3ccc(N4CCC(CN5CCN6c7ccc(N[C@H]8CCC(=O)NC8=O)cc7OC[C@@H]6C5)CC4)cc3)C2(C)C)ccc1C#N [A-P-100] | 1 | 48 | 0.38 | 4.7 | – | – |
| COc1cc(O[C@H]2C(C)(C)[C@H](NC(=O)c3ccc(N4CCC(CN5CCN(c6ccc(C(=O)N[C@H]7CCC(=O)NC7=O)c(F)c6)CC5)CC4)cc3)C2(C)C)ccc1C#N [ARV-766, reference compound] | 49 | 78 | – | – | 1.07 | 0.779 |
| (R)-3-((1-(4-(((S)-2-(3-chloro-4-cyanophenyl)-3-methyl-2,8-diazaspiro[4.5]decan-8-yl)phenyl)piperidin-4-yl)methyl)-N-(((S)-2,6-dioxopiperidin-3-yl)-1,2,3,4,4a,5-hexahydrobenzo[b]pyrazi no[1,2-d][1,4]oxazine-8-carboxamide [A-P-58] | 63 | 87 | – | – | 0.51 | 1.83 |
| (S)-3-((1-(4-(((S)-2-(3-chloro-4-cyanophenyl)-3-methyl-2,8-diazaspiro[4.5]decan-8-yl)phenyl)piperidin-4-yl)methyl)-N-(((S)-2,6-dioxopiperidin-3-yl)-1,2,3,4,4a,5-hexahydrobenzo[b]pyrazi no[1,2-d][1,4]oxazine-8-carboxamide [A-P-57] | 39 | 76 | – | – | 0.67 | 3.02 |
| N-(1r,4r)-4-(3-chloro-4-cyanophenoxy)cyclohexy 1)-6-(4-(7-(2,6-dioxopiperidin-3-yl))-6-oxo-7,8-dihydro-2H,6H-dipyrido[2,3-e]isoindole-3,1'-cyclohexane-4',4‴-piperidin]-1"-yl)pyridazine-3-carboxamide [A-P-32] | 12 | 46 | – | – | 0.57 | 1.23 |
